Source: patent publication US6287572A, “Anti-HIV peptides and proteins” (Oxford Biomedica (UK) Limited, priority 1997, dated 2001)
“Also recorded” adds a separate entry of the source.

Columns and labels:
HIV-1 = details: Neidrig et al 1994; cited from earlier work
HIV-1IIIB virus [1] = assay: Peptide inhibition experiment, U937 culture; format: cell-based; details: peptide 200 mg/ml, RT activity in supernatant
Protocol: (§1) A series of overlapping p17 derived 1 5mer peptides were used. The peptides were dissolved in phosphate-buffered saline pH 7.0 and used at a final concentration of 200 mg/ml. For each peptide, 2×10^5 U937 cells were pelleted and resuspended in […] media containing […] of a stock of HIV-1IIIB virus (giving a multiplicity of infection of 0.25) and 200 mg/ml of the appropriate peptide. Following incubation for two days, the cells were pelleted and resuspended in fresh media containing peptide. After a further three days incubation, […] of the culture was removed and added to 1×10^5 C8166 cells in a total volume of […] with the appropriate peptide. Samples of both the U937 and C8166 culture supernatants were taken after a further two and three days incubation and assayed for RT activity. In addition, the C8166 cells were visually inspected for the appearance of syncytia on day three.

HIV-1IIIB virus [2] = assay: Peptide inhibition experiment, C8166 culture; format: cell-based; details: peptide 200 mg/ml, RT activity in supernatant
Protocol: as §1

Row | Substance | inhibitory activity of peptide in previous studies (HIV-1) | RT titer, U937 day 7 (HIV-1IIIB virus [1]; day 7) | RT titer, U937 day 8 (HIV-1IIIB virus [1]; day 8) | RT titer, C8166 day 2 (HIV-1IIIB virus [2]; day 2) | RT titer, C8166 day 3 (HIV-1IIIB virus [2]; day 3)
1 | 23 to 46: p17 peptide spanning residues 23 to 46 of previous studies (Neidrig et al 1994) (GGKKKYKLKHIVWASRELERFAVN; Matrix protein p17; UniProt P04591 24-47, looked up, fragment) | no inhibitory activity; also recorded: no inhibitory effect | – | – | – | –
2 | 47 to 59: inhibitory p17 peptide spanning residues 47 to 59 of previous studies (Neidrig et al 1994) (PGLLETSEGCRQI; Matrix protein p17; UniProt P04591 48-60, looked up, fragment) | inhibitory | – | – | – | –
3 | 51-65: p17-derived 15mer peptide, corresponding p17 residues 51-65 (ETSEGCRQILGQLQP; Matrix protein p17; UniProt P04591 52-66, looked up, fragment) [Mutant 51-65] | – | 14.8 × 10^3 cpm/ml | 47.0 × 10^3 cpm/ml | 19.9 × 10^3 cpm/ml | 33.6 × 10^3 cpm/ml
